Consider 46 compounds from patent publication US7288567B2, “Inhibitors of histone deacetylase” (Methylgene Inc., priority 2000, dated 2007).

Molecules are shown by their SMILES. Structures can show the parent of a compound that is named as a salt.

The target of one assay is T1, recombinant human HDAC-1 enzyme (rHDAC-1) (Homo sapiens, UniProt Q13547).
T1 construct: made in house; host or cells: Baculovirus insect cell expression system
T1 sequence (Q13547 whole entry): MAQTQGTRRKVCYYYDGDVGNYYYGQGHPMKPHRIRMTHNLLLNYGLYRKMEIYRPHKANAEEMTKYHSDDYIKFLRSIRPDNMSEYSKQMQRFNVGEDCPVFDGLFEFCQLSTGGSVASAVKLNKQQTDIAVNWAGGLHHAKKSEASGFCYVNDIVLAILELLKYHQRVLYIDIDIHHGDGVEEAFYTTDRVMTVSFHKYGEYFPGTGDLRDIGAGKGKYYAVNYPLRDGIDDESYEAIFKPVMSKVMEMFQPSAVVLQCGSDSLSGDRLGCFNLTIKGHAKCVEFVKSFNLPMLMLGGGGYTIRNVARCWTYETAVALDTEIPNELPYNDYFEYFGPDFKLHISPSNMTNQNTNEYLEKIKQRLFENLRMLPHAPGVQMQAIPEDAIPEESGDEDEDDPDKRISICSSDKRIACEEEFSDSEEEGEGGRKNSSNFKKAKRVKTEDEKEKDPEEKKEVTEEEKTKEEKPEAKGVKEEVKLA
The experiment in a line: Histone deacetylase inhibition, recombinant human HDAC-1.
Conditions: not given
The class given is biochemical. As to the method: The reaction was stopped by adding acetic acid (0.04 M, final concentration) and HCl (250 mM, final concentration). The mixture was extracted with ethyl acetate and the released [^3H]-acetic acid was quantified by scintillation counting. For inhibition studies, the enzyme was preincubated with compounds at 4° C. for 30 minutes prior to initiation of the enzymatic assay. IC50 values for HDAC enzyme inhibitors were determined by performing dose response curves with individual compounds and determining the concentration of inhibitor producing fifty percent of the maximal inhibition.
Usually IC50 stands for the concentration that inhibits the measured activity by half. As for `O=C(CCCCCNCc1ccc2ccccc2c1)NO` [Compound 223, N-Hydroxy-6-N-(2-naphthylmethylamino)hexanamide trifluoroacetate], the concentration for half-maximal inhibition (IC50) came to 2 µM.

The assay is the same for the next values; noted with them: cloned recombinant human HDAC-1, Baculovirus insect cell expression; read-out: rHDAC-1 IC50.
Consider `Nc1ccccc1NC(=O)CCCCCN1C(=O)c2cc(Cl)c(Cl)cc2C1=O` [Compound 243f, N-(2-Aminophenyl)-6-(5,6-dichloro-N-phthaloyl)hexanamide], for which the 50% inhibitory concentration (IC50) turned out to be 3 µM.

For `O=C(CCCCSCC(=O)c1ccc2ccccc2c1)NO` [Compound 226a, N-Hydroxy-5-(2-naphthoylmethylsulfanyl)pentanamide], the IC50 is 0.007 µM.

For `O=C(CCCCCCC(=O)c1ccccc1)Nc1ccccc1O` [Compound 86, N-(2-Hydroxyphenyl)-7-(benzoyl)heptanamide], the half-inhibitory concentration (IC50) came out at 5 µM.

In the case of `O=C(CCCCCCC(=O)c1cc2ccccc2[nH]1)NO` [Compound 100, N-Hydroxy-7-[2-(indolyl)carbonyl]heptanamide], the concentration for half-maximal inhibition (IC50) is 4 µM.

On to `CC(C)(C)OC(=O)N1CCN(c2ccc(C(=O)CCCCCCC(=O)NO)cc2)CC1` [Compound 138c1, N-Hydroxy-7-[4-(1-(4-tert-butyloxycarbonylpiperazinyl))benzoyl]heptanamide], for which the 50% inhibitory concentration (IC50) was 0.03 µM.

As to `CC(CCCCC(=O)c1ccc2ccccc2c1)CC(=O)Nc1ccccc1N` (stereo not shown) [Compound 198, (Z)-N-(2-Aminophenyl)-3-methyl-7-(2-naphthoyl)heptanamide], the IC50 was 16 µM.

For `Nc1ccccc1NC(=O)CCCCCCC(=O)c1ccccc1` [Compound 53a, N-(2-Aminophenyl)-7-benzoylheptanamide], the IC50 amounted to 0.6 µM.

As to `Nc1ccccc1NC(=O)CCCCCCC(O)c1cccc(-c2ccccc2)c1` (stereo not shown) [Compound 133, N-(2-Aminophenyl)-8-(3-biphenyl)-8-hydroxy-octanamide], the concentration for half-maximal inhibition (IC50) came out at 1 µM.

For `CN(CCCCCC(=O)Nc1ccccc1N)Cc1ccc2ccccc2c1` [Compound 210, N-(2-Aminophenyl)-N-(2-naphthylmethyl-methylamino)hexanamide], the IC50 was 10 µM.

For the compound `CC(C)(C)OC(=O)N(CCCCCC(=O)NO)Cc1ccc2ccccc2c1` [Compound 222, N-Hydroxy-6-N-(tert-butoxycarbonyl-2-naphthylmethylamino)hexanamide], the 50% inhibitory concentration (IC50) stood at 0.1 µM.

Turning to `COc1ccc(N)c(NC(=O)CCCCCCC(=O)c2ccc(-c3ccccc3)cc2)c1` [Compound 83, N-(3-(4-Amino)anisole)-7-[(4-biphenyl)carbonyl]heptanamide], the IC50 was found to be 25 µM.

Regarding `Nc1ccccc1NC(=O)CCCCCCOc1ccc(-c2ccccc2)cc1` [Compound 234, N-(2-Aminophenyl)-7-(4-biphenyloxy)heptanamide], the half-maximal inhibitory concentration (IC50) was determined as 1 µM.

On to `CN(CCCCC(=O)NO)CCc1ccc2ccccc2c1` [Compound 216, N-Hydroxy-5-N-[2-(2-naphthylethyl)-methylamino]pentanamide], for which the IC50 stood at 0.3 µM.

As for `C/C(=C/C(=O)Nc1ccccc1N)CCCCC(=O)c1ccc2ccccc2c1` [Compound 194, (Z)-N-(2-Aminophenyl)-3-methyl-7-(2-naphthoyl)-2-heptenamide], the concentration for half-maximal inhibition (IC50) was 24 µM.

As to `Nc1ccccc1NC(=O)CCCCN1C(=O)c2ccccc2C1=O` [Compound 243b, N-(2-Aminophenyl)-5-(N-phthaloyl)pentanamide], the IC50 came to 99 µM.

Turning to `CON=C(CCCCCCC(=O)Nc1ccccc1N)c1cccc(-c2ccccc2)c1` (mixture of isomers) [Compound 135, N-(2-Aminophenyl)-8-(E)-O-methyl-oximino-8-(3-biphenyl)octanamide], the IC50 is 2 µM.

On to `O=C(CCCCCN(Cc1ccc2ccccc2c1)C(=O)OCc1ccccc1)NO` [Compound 220a, N-Hydroxy-6-N-(Benzyloxycarbonyl-2-naphthylmethylamino)hexanamide], for which the IC50 is 0.02 µM.

Consider `Nc1ccccc1NC(=O)CCCCCN1C(=O)c2ccc(O)cc2C1=O` [Compound 243g, N-(2-Aminophenyl)-6-(5-hydroxy-N-phthaloyl)hexanamide], for which the IC50 came out at 3 µM.

For `Nc1ccccc1NC(=O)CCCCCC(=O)c1ccc(-c2ccccc2)cc1` [Compound 129, N-(2-Aminophenyl)-6-[(biphenyl)carbonyl]hexanamide], the IC50 was determined as 1 µM.

Take `O=C(CCCCCN(Cc1ccccc1)Cc1ccc2ccccc2c1)NO` [Compound 220b, N-Hydroxy-6-N-(Benzyl-2-naphthylmethylamino)hexanamide]: the IC50 was found to be 0.1 µM.

As for `Nc1ccccc1NC(=O)CCCCCN1C(=O)c2ccc([N+](=O)[O-])cc2C1=O` [Compound 243e, N-(2-Aminophenyl)-6-(5-nitro-N-phthaloyl)hexanamide], the IC50 worked out at 12 µM.

Turning to `O=C(CCCCS(=O)(=O)CC(=O)c1ccc2ccccc2c1)NO` [Compound 229a, N-Hydroxy-5-(2-naphthoylmethylsulfonyl)pentanamide], the half-inhibitory concentration (IC50) is 1 µM.

On to `Nc1ccccc1NC(=O)CCCCCCCC(=O)c1ccc(-c2ccccc2)cc1` [Compound 130, N-(2-Aminophenyl)-8[(4-biphenyl)carbonyl]octanamide], for which the IC50 came to 3 µM.

On to `COc1ccc(-c2ccc(C(=O)CCCCCCC(=O)NO)cn2)cc1OC` [Compound 150, N-Hydroxy-7-[5-(2-(3,4-dimethoxyphenyl)pyridyl)carbonyl]heptanamide], for which the IC50 was 0.05 µM.

For the compound `CN(CCCCC(=O)NO)Cc1ccc2ccccc2c1` [Compound 213, N-Hydroxy-5-N-(2-naphthylmethyl-methylamino)pentanamide], the 50% inhibitory concentration (IC50) worked out at 3 µM.

`Nc1ccccc1NC(=O)CCCCCN1C(=O)c2ccncc2C1=O` [Compound 246b]: the IC50 is 14 µM.

For `Nc1ccccc1NC(=O)CCCCCN1Cc2ccccc2C1=O` [Compound 248, N-(2-Aminophenyl)-6-[2-(1-oxo-1,3-dihydro-isoindolyl)]hexanamide], the IC50 came out at 4 µM.

As to `Nc1ccccc1NC(=O)CCCCS(=O)(=O)CC(=O)c1ccc(-c2ccccc2)cc1` [Compound 230b, N-(2-Aminophenyl)-5-(4-biphenylcarbonylmethylsulfonyl)pentanamide], the half-inhibitory concentration (IC50) was 12 µM.

With `Nc1ccccc1NC(=O)CCCCCN1C(=O)c2cccc3c(Br)ccc(c23)C1=O` [Compound 251b, N-(2-Aminophenyl)-6-[2-(6-bromo-1,3-dioxo-1H,3H-benzo[de]isoquinolinyl)]-hexanamide], the IC50 is 1 µM.

For `Nc1ccccc1NC(=O)CCCCCCC(=O)c1ccc(-c2ccc(CN3CCOCC3)cc2)cc1` [Compound 157, N-(2-Aminophenyl)-7-[4-(4-(N-methylmorpholinyl)phenyl)benzoyl]heptanamide], the IC50 was determined as 4 µM.

For the compound `CC(C)(C)OC(=O)N(CCCCCC(=O)Nc1ccccc1N)Cc1ccc2ccccc2c1` [Compound 224, N-(2-Aminophenyl)-6-N-(tert-butoxycarbonyl-2-naphthylmethylamino)-hexanamide], the half-maximal inhibitory concentration (IC50) came to 3 µM.

As to `O=C(CCCCCCC(=O)c1ccc(N2CCNCC2)cc1)NO` [Compound 138c2], the concentration for half-maximal inhibition (IC50) was found to be 0.03 µM.

For the compound `O=C(CCCCSCC(=O)c1ccc(-c2ccccc2)cc1)NO` [Compound 226b, N-Hydroxy-5-(4-biphenylcarbonylmethanesulfanyl)pentanamide], the IC50 amounted to 0.006 µM.

Consider `Nc1ccccc1NC(=O)CCCCCN1C(=O)c2cccnc2C1=O` [Compound 246a], for which the half-inhibitory concentration (IC50) came to 5 µM.

As for `O=C(CCCCCCC(=O)c1ccc(-c2ccccc2)cc1)Nc1n[nH]c(=S)s1` [Compound 79, N-(4,5-Dihydro-5-thioxo-1,3,4-thiadiazol-2-yl)-7-[(4-biphenyl)carbonyl]-heptanamide], the concentration for half-maximal inhibition (IC50) turned out to be 9 µM.

On to `CN(CCCCCC(=O)NO)Cc1ccc2ccccc2c1` [Compound 209, N-Hydroxy-N-(2-naphthylmethyl-methylamino)hexanamide], for which the half-maximal inhibitory concentration (IC50) turned out to be 0.05 µM.

With `O=C(CCCCCC(=O)c1ccc(-c2ccccc2)cc1)Nc1n[nH]c(=S)s1` [Compound 128, N-(4,5-Dihydro-5-thioxo-1,3,4-thiadiazol-2-yl)-6-[(4-biphenyl)carbonyl]hexanamide], the IC50 amounted to 19 µM.

For the compound `Nc1ccccc1NC(=O)CCCCSCC(=O)c1ccc(-c2ccccc2)cc1` [Compound 227b, N-(2-Aminophenyl)-5-(4-biphenylcarbonylmethanesulfanyl)pentanamide], the half-maximal inhibitory concentration (IC50) was 3 µM.

`Nc1ccccc1NC(=O)CCCCSCC(=O)c1ccc2ccccc2c1` [Compound 227a, N-(2-Aminophenyl)-5-(2-naphthoylmethylsulfanyl)pentanamide]: the IC50 is 3 µM.

For the compound `Nc1ccccc1NC(=O)CCCCCN1C(=O)c2cc(O)c(CN3CCCCC3)cc2C1=O` [Compound 243h, N-(2-Aminophenyl)-6-(5-hydroxy-6-(1-methylpiperidinyl)-N-phthaloyl)-hexanamide], the IC50 turned out to be 3 µM.

For `O=C(CCCCCCC(=O)c1cccc(-c2ccccc2)c1)NO` [Compound 131, N-Hydroxy-7-[(3-biphenyl)carbonyl]heptanamide], the half-inhibitory concentration (IC50) turned out to be 0.008 µM.

For the compound `O=C(CCCCS(=O)(=O)CC(=O)c1ccc(-c2ccccc2)cc1)NO` [Compound 229b, N-Hydroxy-5-(4-biphenylcarbonylmethylsulfonyl)pentanamide], the IC50 was determined as 0.04 µM.

With `Nc1ccccc1NC(=O)CCCCCCC(=O)c1cccc(-c2ccccc2)c1` [Compound 132, N-(2-Aminophenyl)-7-[(3-biphenyl)carbonyl]heptanamide], the 50% inhibitory concentration (IC50) was 0.8 µM.

In the case of `Nc1ccccc1NC(=O)CCCCS(=O)(=O)CC(=O)c1ccc2ccccc2c1` [Compound 230a, N-(2-Aminophenyl)-5-(2-naphthoylmethylsulfonyl)pentanamide], the IC50 turned out to be 5 µM.

Take `Nc1ccccc1NC(=O)CCCCCCN1C(=O)c2ccccc2C1=O` [Compound 243c, N-(2-Aminophenyl)-7-(N-phthaloyl)heptanamide]: the half-maximal inhibitory concentration (IC50) came out at 4 µM.
